Experimental data reported in PMC7796559, “Connecting the conformational behavior of cyclic octadepsipeptides with their ionophoric property and membrane permeability” (Organic & biomolecular chemistry, 2020).
Like-named read-outs stand apart in the source and are kept apart here. Non-standard residues stand in square brackets, D forms with d. Residues, ends and D or L forms follow the SMILES beside them. dPhLac = O=C(O)[C@H](O)Cc1ccccc1; NMeL = CN[C@@H](CC(C)C)C(=O)O; dLac = C[C@@H](O)C(=O)O

Key:
nematodes = details: cited from earlier work
[1] = Site-to-site exchange rates from EXSY peaks in EASY-ROESY; format: physicochemical; details: for kex / k1 / k2: EASY-ROESY, mixing time 100 ms, CDCl3; for k1 / k2: site-to-site exchange rate
Description: Following ref. [76] and [77], site-to-site rates were determined in a straightforward way by taking the logarithm of matrix A = M × M0^−1 containing the volumes of cross- and diagonal peaks of the exchanging sites (Hα of Mle^2, Mle^6 and Mle^26) divided by their magnetic fraction M0 (i.e. the relative intensities of the corresponding resonances in the ^1H NMR spectrum) as an approximation of M(0): (1) M=e^Ltm×M0 (2) A=(IAA/M0AIAB/M0BIAC/M0CIBA/M0AIBB/M0BIBC/M0CICA/M0AICB/M0BICC/M0C) (3) 1/tmln(A)=(kBA+kCA−R1kABkACkBA−kAB−R10kBC0−kAC−R1)
L is the difference between the kinetic matrix K containing the site-to-site rate constants and the relaxation matrix R, tm is the mixing time used in the ROESY experiment, and Ri are the auto-relaxation rates of the exchanging sites in the symmetric (A) and asymmetric (B, C) conformations.
EXSY peak volumes extracted from the ROESY spectrum (shown schematically in Fig. 13) and the magnetic fractions in the 1H NMR spectrum are inserted in matrix A (eqn 4). Site-to-site rates are obtained by taking the logarithm of matrix A and dividing the result by the mixing time (0.1 s) (eqn 5): kAB = kAC = 0.09 s^−1 and kBA = kCA = 0.16 s^−1 (averaged rates). Calculations were carried out in Mathematica 12.0.[78] (4) A=(77.9/11.52/1.51.55/1.51.59/1236/1.50/1.51.75/10/1.5200/1.5) (5) 1/0.1ln(A)=(43.55240.090.100.1450.580.000.170.0048.9)

[2] = PAMPA with and without potassium salt; format: in vitro ADME; details: for recovery at 10 μM / Papp at 10 µM / Papp: PAMPA; for PAMPA permeability (in words): independent of the addition of potassium salt
Description: PAMPA was performed using a 96-well filter donor plate with 0.45 μm hydrophobic Immobilon-P membrane supports (Millipore MAIPNTR10) and a 96-well Teflon acceptor plate (Millipore MSSACCEPTOR). The donor plate was prepared by applying 5 μL of 1% (w/v) soybean lecithin (90%, Alfa Aesar) in n-dodecane to each filter. The acceptor plate was prepared by addition of 300 μl of pH = 7.4 phosphate-buffered saline (PBS) with 5% DMSO to each well. Donor solutions composed of PBS with 5% DMSO, 10 μM carbamazepine standard, and 10 μM compound 1, 2 or 8 were prepared with and without additional KCl (0.27 mM or 100.27 mM K^+ concentration) before addition of 150 μl to each donor well, with all conditions run in quadruplicate. The donor plate was then loaded into the acceptor plate and was left in a sealed, damp chamber at 25 °C for approximately 17 hours (exact times recorded and used in calculation of Pe). The plates were then separated, and 100 μl of solution from each well was transferred to another plate for LC-MS analysis. Permeabilities were calculated identically to a previous study.[80]

efflux transporter P-gp = test system: efflux transporter P-gp; design: method as in PMID 25131706; details: cited from earlier work
[3] = Cation binding in apolar solvent (chloroform) by NMR; format: physicochemical; details: CDCl3; solid KSCN and sonication (1) or saturated KSCN solution in D2O, phase separation (2)
Description: It is known that valinomycin, a cyclic dodecadepsipeptide, as well as some crown ethers can bind cations even in an apolar solvent.[59]–[61] This ability is an indirect evidence that the ion-bound complex may exist inside the membrane interior, i.e. that ion transport across a membrane is possible. To assess if the cyclic octadepsipeptides are also able to bind cations in an apolar solvent, KSCN was added to a solution of 1 in chloroform and sonicated for several hours.

[4] = design: method as in PMID 26067057; details: PAMPA; cited from earlier work
Caco-2 = test system: Caco-2; design: method as in PMID 26067057, PMID 32121188; details: cited from earlier work
[5] = design: method as in PMID 22138252, PMID 24061379; details: cited from earlier work
[6] = design: method as in PMID 22138252, PMID 24061379; details: cited from earlier work; remark: listed apart in the source
mycobacteria = test system: mycobacteria; design: method as in PMID 5879163; details: cited from earlier work
ryanodine-binding = test system: ryanodine-binding; design: method as in PMID 20057513; details: cited from earlier work
[7] = pH 7.4, PAMPA, + 100 mM KCl, read-out: Average Recovery Rate
[8] = pH 7.4, PAMPA, without additional KCl, read-out: Average Recovery Rate
[9] = without additional KCl (0.27 mM K+), PBS pH 7.4 with 5% DMSO, 10 μM compound, approx. 17 hours, 25 °C, read-out: Average Permeability with standard deviation in brackets
[10] = worked example, mixing time 0.1 s

In the case of `CC(C)CC1C(=O)OC(Cc2ccccc2)C(=O)N(C)C(CC(C)C)C(=O)OC(C)C(=O)N(C)C(CC(C)C)C(=O)OC(Cc2ccccc2)C(=O)N(C)C(CC(C)C)C(=O)OC(C)C(=O)N1C` (single isomer, unassigned) [enantiomer of PF1022A], the “Anthelmintic activity (in words)” value (nematodes) is listed as “no anthelmintic activity”.
In the case of `CC(C)C[C@H]1C(=O)O[C@H](Cc2ccccc2)C(=O)N(C)[C@@H](CC(C)C)C(=O)O[C@H](C)C(=O)N(C)N(CC(C)C)C(=O)O[C@H](Cc2ccccc2)C(=O)N(C)N(CC(C)C)C(=O)O[C@H](C)C(=O)N1C` [Bis-aza analog (8)], the kex [1] is reported as 0.19 s⁻¹, the k1 [1] is reported as 0.17 s⁻¹ and the k2 [1] is reported as 0.02 s⁻¹. The “Biological activity weaker by a factor compared to 1” value (nematodes) was 5–10, the recovery at 10 μM [2, 7] was 6.8% and the recovery at 10 μM [2, 8] was 26.2%. For the same compound, the Papp at 10 µM [2, 9] was 0.08 ×10⁻⁶ cm/s and the “PAMPA permeability (in words)” value [2] was “no permeability was detected”.
Compound `NC(=O)N1c2ccccc2C=Cc2ccccc21` [Carbamazepine, carbamazepine, reference compound] has a Papp at 10 µM ([2]; pH 7.4, 10 μM standard in donor solutions, with and without 100 mM KCl, read-out: Permeability of PAMPA control) of 7.94 to 11.1 ×10⁻⁶ cm/s and a recovery at 10 μM ([2]; pH 7.4, 10 μM standard in donor solutions, with and without 100 mM KCl, read-out: Recovery rate of PAMPA control) of 85.4 to 200%.
In the case of `CC(C)C[C@H]1C(=O)O[C@H](Cc2ccc(N3CCOCC3)cc2)C(=O)N(C)[C@@H](CC(C)C)C(=O)O[C@H](C)C(=O)N(C)[C@@H](CC(C)C)C(=O)O[C@H](Cc2ccc(N3CCOCC3)cc2)C(=O)N(C)[C@@H](CC(C)C)C(=O)O[C@H](C)C(=O)N1C` [Emodepside (2), reference compound], the kex [1] is reported as 0.18 s⁻¹, the k1 [1] is reported as 0.12 s⁻¹ and the k2 [1] is reported as 0.06 s⁻¹. The “Anthelmintic activity relative to PF1022A (in words)” value (nematodes) was “increased anthelmintic activity”, the “Substrate of the efflux transporter P-gp” value (efflux transporter P-gp) was “substrate” and the recovery at 10 μM [2, 7] was 27.3%. For the same compound, the recovery at 10 μM [2, 8] was 78.7%, the “PAMPA permeability (in words)” value [2] was “no permeability was detected” and the “Conformation detected in chloroform after contact with KSCN” value [3] was “the symmetric conformation is present almost exclusively”.
In the case of `CC(C)[C@H]1C(=O)O[C@H](C(C)C)C(=O)N(C)[C@@H](C(C)C)C(=O)O[C@H](C(C)C)C(=O)N(C)[C@@H](C(C)C)C(=O)O[C@H](C(C)C)C(=O)N1C` [Enniatin B, enniatin B], the “log Pe” value [4] is given as −4.73 and the “Permeability in Caco-2 permeability assay” value (Caco-2) is given as 610 ×10⁻⁶ cm/s.
In the case of `CC(C)C[C@H]1C(=O)O[C@H](Cc2ccc(I)cc2)C(=O)N(C)[C@@H](CC(C)C)C(=O)O[C@H](C)C(=O)N(C)[C@@H](CC(C)C)C(=O)O[C@H](Cc2ccccc2)C(=O)N(C)[C@@H](CC(C)C)C(=O)O[C@H](C)C(=O)N1C` [Mono-iodo analog (11)], the kex [1] is reported as 0.26 s⁻¹, the k1 [1] is reported as 0.17 s⁻¹ and the k2 [1] is reported as 0.09 s⁻¹.
For `CC(C)CC1C(=O)OC(Cc2ccccc2)C(=O)N(C)C(CC(C)C)C(=O)OC(C)C(=O)N(C)C(CC(C)C)C(=O)OC(Cc2ccccc2)C(=O)N(C)C(CC(C)C)C(=O)OC(C)C(=O)N1C` (stereo not drawn) [PF1022A (1)], the kex [1] was 0.25 s⁻¹, the k1 [1] was 0.16 s⁻¹ and the k2 [1] was 0.09 s⁻¹. The “kAB = kAC (averaged site-to-site rate)” value [1, 10] was 0.09 s⁻¹, the “kBA = kCA (averaged site-to-site rate)” value [1, 10] was 0.16 s⁻¹ and the Papp ([2]; pH 7.4, PAMPA, + 100 mM KCl (100.27 mM K+), PBS pH 7.4 with 5% DMSO, 10 μM compound, approx. 17 hours, 25 °C, read-out: Average Permeability with standard deviation in brackets) was 0.02 ×10⁻⁶ cm/s. For the same compound, the recovery at 10 μM [2, 7] was 57.4%, the recovery at 10 μM [2, 8] was 18.4% and the Papp [2, 9] was 0.06 ×10⁻⁶ cm/s. The “PAMPA permeability (in words)” value [2] was “no permeability was detected” and the “Conformation detected in chloroform after contact with KSCN” value [3] was “only the symmetric conformation could be detected”.
In the case of `CC(C)C1OC(=O)C(C(C)C)N(C)C1=O` (stereo not drawn) [compound 3, 3,6-di-(propan-2-yl)-4-methyl-morpholine-2,5-dione], the “Antioxidant activity (in words)” value [5] is given as “moderate” and the “Antimicrobial activity (in words)” value [6] is given as “moderate”.
In the case of `CC(C)C[C@H]1C(=O)O[C@H](C(C)C)C(=O)N(C)[C@@H](CC(C)C)C(=O)O[C@H](C(C)C)C(=O)N1C` [compound 4, cyclo-(N-methyl L-leucine D-hydroxyisovaleric acid)2], the “Activity against mycobacteria (in words)” value (mycobacteria) is listed as “no activity”.
For `CCCCC[C@H]1OC(=O)[C@H](C)N(C)C(=O)[C@@H](CCCCC)OC(=O)[C@H](C)N(C)C(=O)[C@@H](CCCCC)OC(=O)[C@H](C)N(C)C(=O)[C@@H](CCCCC)OC(=O)[C@H](C)N(C)C1=O` [compound 7, verticilide], the “Ryanodine binding (in words)” value (ryanodine-binding) is listed as “ryanodine-binding inhibitor”.
For `CC(C)C[C@H]1C(=O)O[C@H](Cc2ccccc2)C(=O)N(C)[C@@H](CC(C)C)C(=O)O[C@H](C)C(=O)N(C)[C@@H](CC(C)C)C(=O)N2CCC[C@@H]2C(=O)N2CCC[C@H]2C(=O)O[C@H](C)C(=O)N1C` [compound 9] (cyclo([dLac][NMeL][dPhLac][NMeL][dLac][NMeL][dP]P)), the “Biological activity higher by a factor compared to 1” value (nematodes) is given as 2.
In the case of `CC(C)C[C@H]1C(=O)O[C@H](Cc2ccccc2)C(=S)N(C)[C@@H](CC(C)C)C(=O)O[C@H](C)C(=S)N(C)[C@@H](CC(C)C)C(=O)O[C@H](Cc2ccccc2)C(=S)N(C)[C@@H](CC(C)C)C(=O)O[C@H](C)C(=S)N1C` [compound 10], the “Activity increased (times) compared to 1” value (nematodes) is listed as 2.5.
